In ChEMBL document CHEMBL2177034, “Inhibition of hypoxia inducible factor-2 transcription: isolation of active modulators from marine sponges” (J Nat Prod, 2012):
Activity calls are given as the source filed them. The rule behind the calls is not given here.

Experiments:
[1] = target: T1, Endothelial PAS domain-containing protein 1 (Homo sapiens, UniProt Q99814); assay: Inhibition of HIF2alpha in human 786-0 cells expressing truncated HIF1alpha assessed as reduction in luciferase activity after 24 hrs by reporter gene assay; format: cell-based
T1 sequence (Q99814 whole entry, the tested form may be a part): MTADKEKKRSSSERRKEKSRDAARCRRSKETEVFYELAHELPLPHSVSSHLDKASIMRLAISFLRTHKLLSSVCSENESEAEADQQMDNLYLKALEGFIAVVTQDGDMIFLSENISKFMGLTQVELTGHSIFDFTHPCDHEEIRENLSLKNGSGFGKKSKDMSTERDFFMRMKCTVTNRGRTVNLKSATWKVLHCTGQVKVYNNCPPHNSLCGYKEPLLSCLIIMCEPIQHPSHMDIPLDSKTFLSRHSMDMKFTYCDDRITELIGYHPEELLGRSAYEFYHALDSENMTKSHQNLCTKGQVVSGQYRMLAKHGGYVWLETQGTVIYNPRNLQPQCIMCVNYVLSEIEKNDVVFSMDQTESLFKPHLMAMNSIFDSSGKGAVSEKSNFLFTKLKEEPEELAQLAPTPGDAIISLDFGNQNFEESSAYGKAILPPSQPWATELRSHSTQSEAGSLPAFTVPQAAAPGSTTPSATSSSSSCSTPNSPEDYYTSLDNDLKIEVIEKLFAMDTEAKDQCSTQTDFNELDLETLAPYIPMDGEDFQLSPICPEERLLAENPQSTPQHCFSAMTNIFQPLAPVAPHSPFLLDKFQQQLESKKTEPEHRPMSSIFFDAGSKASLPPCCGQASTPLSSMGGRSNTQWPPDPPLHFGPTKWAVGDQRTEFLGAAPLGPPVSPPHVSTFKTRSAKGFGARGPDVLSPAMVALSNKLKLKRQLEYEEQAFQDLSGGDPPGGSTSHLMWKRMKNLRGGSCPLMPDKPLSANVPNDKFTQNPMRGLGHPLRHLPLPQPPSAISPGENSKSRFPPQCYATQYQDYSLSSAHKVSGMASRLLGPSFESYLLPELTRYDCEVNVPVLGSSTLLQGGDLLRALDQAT

786-0 [2] = assay: Downregulation of HIF1alpha mRNA expression in human 786-0 cells after 48 hrs by RT-PCR analysis; format: functional, cell-based
[3] = target: T1, Endothelial PAS domain-containing protein 1; assay: Inhibition of HIF2alpha in human 786-0 cells assessed as reduction in VEGFA after 48 hrs by RT-PCR analysis; format: cell-based
[4] = Downregulation of HIF1alpha mRNA expression in human SK-RC-28 cells after 48 hrs by RT-PCR analysis; format: functional, cell-based
[5] = Downregulation of HIF2alpha mRNA expression in human SK-RC-28 cells after 48 hrs by RT-PCR analysis; format: functional, cell-based
[6] = Downregulation of HIF2alpha mRNA expression in human RCC4 cells after 48 hrs by RT-PCR analysis; format: functional, cell-based
[7] = target: Hypoxia-inducible factor 1-alpha (Homo sapiens) (UniProt Q16665); assay: Inhibition of HIF1alpha in human SK-RC-28 cells assessed as reduction in carbonic anhydrase 9 expression after 48 hrs by RT-PCR analysis; format: cell-based
Chain of Hypoxia-inducible factor 1-alpha (Homo sapiens) (Q16665 whole entry, looked up, the tested form may be a part): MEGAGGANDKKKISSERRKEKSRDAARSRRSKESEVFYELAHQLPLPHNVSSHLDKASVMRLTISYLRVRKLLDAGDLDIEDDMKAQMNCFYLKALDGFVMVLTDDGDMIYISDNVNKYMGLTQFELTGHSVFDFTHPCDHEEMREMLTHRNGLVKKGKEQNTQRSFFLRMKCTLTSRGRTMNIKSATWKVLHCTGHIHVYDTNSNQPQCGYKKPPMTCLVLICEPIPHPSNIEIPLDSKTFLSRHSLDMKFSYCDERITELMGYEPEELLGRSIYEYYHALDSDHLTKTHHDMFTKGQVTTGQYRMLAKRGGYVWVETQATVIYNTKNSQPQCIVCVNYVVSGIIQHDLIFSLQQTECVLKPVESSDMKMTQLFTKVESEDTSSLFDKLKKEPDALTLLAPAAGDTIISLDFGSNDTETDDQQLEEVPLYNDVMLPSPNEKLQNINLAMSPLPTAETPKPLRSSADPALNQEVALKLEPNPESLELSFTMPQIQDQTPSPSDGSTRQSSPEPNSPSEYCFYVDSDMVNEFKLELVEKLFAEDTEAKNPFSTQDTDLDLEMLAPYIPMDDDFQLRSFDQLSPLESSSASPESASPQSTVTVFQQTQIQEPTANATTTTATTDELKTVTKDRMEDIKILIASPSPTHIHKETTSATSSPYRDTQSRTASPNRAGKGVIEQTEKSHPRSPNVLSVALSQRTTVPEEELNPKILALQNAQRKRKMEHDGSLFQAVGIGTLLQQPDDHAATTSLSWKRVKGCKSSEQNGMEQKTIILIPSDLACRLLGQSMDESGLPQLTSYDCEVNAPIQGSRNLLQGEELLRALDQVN

[8] = Downregulation of TGFalpha mRNA expression in human SK-RC-28 cells after 48 hrs by RT-PCR analysis; format: functional, cell-based
[9] = target: Hypoxia-inducible factor 1-alpha (Homo sapiens) (UniProt Q16665); assay: Inhibition of HIF1alpha in human RCC4 cells coexpressing HIF2alpha assessed as decrease in carbonic anhydrase 9 mRNA expression after 48 hrs by RT-PCR analysis; format: cell-based
[10] = target: T1, Endothelial PAS domain-containing protein 1; assay: Inhibition of HIF2alpha in human 786-0 cells assessed as reduction in CCND1 mRNA expression after 48 hrs by RT-PCR analysis; format: cell-based
[11] = target: Hypoxia inducible factors; HIF-1-alpha, HIF-2-alpha (Homo sapiens) (UniProt Q16665+Q99814); assay: Inhibition of HIF1alpha/2alpha in human RCC4 cells assessed as reduction in VEGFA mRNA expression after 48 hrs by RT-PCR analysis; format: cell-based
[12] = target: T1, Endothelial PAS domain-containing protein 1; assay: Inhibition of HIF2alpha in human 786-0 cells assessed as reduction in GLUT1 mRNA expression after 48 hrs by RT-PCR analysis; format: cell-based
[13] = target: T1, Endothelial PAS domain-containing protein 1; assay: Inhibition of HIF2alpha in human RCC4 cells coexpressing HIF1alpha assessed as reduction in TGFalpha mRNA expression after 48 hrs by RT-PCR analysis; format: cell-based
[14] = target: Hypoxia-inducible factor 1-alpha (Homo sapiens) (UniProt Q16665); assay: Inhibition of HIF1alpha in human SK-RC-28 cells assessed as reduction in VEGFA after 48 hrs by RT-PCR analysis; format: cell-based
[15] = Downregulation of HIF1alpha mRNA expression in human RCC4 cells after 48 hrs by RT-PCR analysis; format: functional, cell-based
[16] = target: T1, Endothelial PAS domain-containing protein 1; assay: Inhibition of HIF2alpha in human 786-0 cells assessed as reduction in TGFalpha mRNA expression after 48 hrs by RT-PCR analysis; format: cell-based
786-0 [17] = assay: Downregulation of HIF2alpha mRNA expression in human 786-0 cells after 48 hrs by RT-PCR analysis; format: functional, cell-based
[18] = Downregulation of CCND1 mRNA expression in human SK-RC-28 cells after 48 hrs by RT-PCR analysis; format: functional, cell-based
[19] = target: T1, Endothelial PAS domain-containing protein 1; assay: Inhibition of HIF2alpha in human RCC4 cells coexpressing HIF1alpha assessed as reduction in GLUT1 mRNA expression after 48 hrs by RT-PCR analysis; format: cell-based
786-0 [20] = assay: Down regulation of carbonic anhydrase 9 expression in human 786-0 cells after 48 hrs by RT-PCR analysis; format: functional, cell-based
[21] = Downregulation of GLUT1 mRNA expression in human SK-RC-28 cells after 48 hrs by RT-PCR analysis; format: functional, cell-based
[22] = target: T1, Endothelial PAS domain-containing protein 1; assay: Inhibition of HIF2alpha in human RCC4 cells coexpressing HIF1alpha assessed as reduction in CCND1 mRNA expression after 48 hrs by RT-PCR analysis; format: cell-based

SMILES: C[C@@]12CCCc3coc(c31)C(=O)c1cc3c(cc12)C(=O)C=CC3=O [XESTOQUINONE]
- EC50 [1]: > 100 µM

SMILES: CC(=O)O[C@@H]1OC=C2[C@@H](OC(C)=O)C[C@H]3[C@]4(C)CC[C@H]5C(C)(C)CCC[C@]5(C)[C@H]4C[C@@H](O)[C@]3(C)[C@H]21 [HETERONEMIN]
- EC50 [1]: 1.2 µM

SMILES: C/C=C(/C)C(=O)OCc1nccc2c1C(=O)C(O)=C(C)C2=O
- Activity (786-0 [2]): inactive
- inhibition [3]: inactive
- Activity [4]: inactive
- Activity [5]: inactive
- Activity [6]: inactive
- inhibition [7]: inactive
- Activity [8]: inactive
- inhibition [9]: inactive
- inhibition [10]: inactive
- inhibition [11]: inactive
- inhibition [12]: inactive
- inhibition [13]: inactive
- inhibition [14]: inactive
- Activity [15]: inactive
- EC50 [1]: > 100 µM
- inhibition [16]: inactive
- Activity (786-0 [17]): inactive
- Activity [18]: inactive
- inhibition [19]: inactive
- Activity (786-0 [20]): inactive
- Activity [21]: inactive
- inhibition [22]: inactive

SMILES: COc1cc2ccnc3c2c(c1OC)NC=C3 [AAPTAMINE]
- EC50 [1]: > 100 µM
